Consider 15 compounds from PubChem BioAssay AID330 (DTP/NCI, 2004).

“And” between values parts separate entries of the source, which are not always exact repeats. Equal values may be shown once. Inconclusive results and toxic doses are left out.

The experiment deals with P388 leukemia ip, CD2F1 mice, survival T/C. Kind of experiment: NCI In Vivo Anticancer Drug Screen. Data for tumor model P388 Leukemia (intraperitoneal) in CD2F1 (CDF1) mice. Particulars: endpoint: median survival time, higher = longer survival. A digest of the protocol:
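Mice carrying the transplanted tumor received test compound or vehicle. Survival was recorded in each group, and the value is the treated-group measurement divided by that of the vehicle-treated control group.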

The mark [1] stands for this setting: dose: 50.0 mg/kg/injection, schedule: Q01DX005 (ip), vehicle: saline with Tween-80.
The mark [2] stands for this setting: dose: 100.0 mg/kg/injection, schedule: Q01DX005 (ip), vehicle: saline with Tween-80.
Where [3] appears, read: dose: 200.0 mg/kg/injection, schedule: Q01DX005 (ip), vehicle: saline with Tween-80.
Setting [4] is: dose: 50.0 mg/kg/injection, schedule: Q01DX009 (ip), vehicle: Klucel (hydroxypropylcellulose) (HPC).

With `CCCCN1C(=O)C(=O)N(c2ccccc2)C1=O`, the T/C by setting is: (dose: 60.0 mg/kg/injection, schedule: Q01DX005 (ip), vehicle: saline with Tween-80) 102 % of control; (dose: 120.0 mg/kg/injection, schedule: Q01DX005 (ip), vehicle: saline with Tween-80) 102 % of control; (dose: 240.0 mg/kg/injection, schedule: Q01DX005 (ip), vehicle: saline with Tween-80) 94 % of control.

Turning to `O=C(Nc1ccc(Cl)c(Cl)c1)NN1CCCCCC1`, the T/C was 103 % of control under setting [1], 103 % of control under setting [2] and 101 % of control under setting [3].

As to `CCCCCCCCCCCCC(=O)N1CCOCC1`, the T/C by setting is: (dose: 100.0 mg/kg/injection, schedule: Q04DX003 (ip), vehicle: saline with Tween-80) 100 % of control; (dose: 200.0 mg/kg/injection, schedule: Q04DX003 (ip), vehicle: saline with Tween-80) 95 % of control; (dose: 400.0 mg/kg/injection, schedule: Q04DX003 (ip), vehicle: saline with Tween-80) 110 % of control.

`COc1cc(N=Nc2ccc([N+](=O)[O-])cc2)ccc1N(CCCl)CCCl`: the T/C reads like this: (dose: 50.0 mg/kg/injection, schedule: Q01DX009 (ip), vehicle: saline with Tween-80) 151 % of control; (dose: 100.0 mg/kg/injection, schedule: Q01DX009 (ip), vehicle: saline with Tween-80) 153 % of control and 156 % of control; (dose: 200.0 mg/kg/injection, schedule: Q01DX009 (ip), vehicle: saline with Tween-80) 168 % of control and 201 % of control.

Turning to `COC(=O)C1=C(O)C(C(=O)OC)=C2C1=C(C(=O)OC)C(=O)C2C(=O)OC` (stereo not given), the T/C reads like this: (dose: 50.0 mg/kg/injection, schedule: Q01DX005 (ip), vehicle: water) 97 % of control; (dose: 100.0 mg/kg/injection, schedule: Q01DX005 (ip), vehicle: water) 98 % of control; (dose: 200.0 mg/kg/injection, schedule: Q01DX005 (ip), vehicle: water) 95 % of control.

Turning to `COc1cc(C2c3cc4c(cc3[C@@H](OC3OC5CO[C@@H](C)OC5C(O)C3O)[C@H]3COC(=O)C23)OCO4)cc(OC)c1OC` (stereo not given in full), the T/C reads like this: (dose: 16.0 mg/kg/injection, schedule: Q01DX005 (ip), vehicle: saline) 163 % of control; (dose: 32.0 mg/kg/injection, schedule: Q01DX005 (ip), vehicle: saline) 166 % of control; (dose: 64.0 mg/kg/injection, schedule: Q01DX005 (ip), vehicle: saline) 153 % of control.

`COc1cccc2c1C(=N)c1c(O)c3c(c(O)c1C2=O)C[C@@](O)(C(C)=O)C[C@@H]3OC1CC(N)C(O)C(C)O1` (stereo not given in full): the T/C runs as follows: (dose: 0.5 mg/kg/injection, schedule: Q01DX009 (ip), vehicle: water) 153 % of control; (dose: 0.75 mg/kg/injection, schedule: Q04DX003 (ip), vehicle: water) 112 % of control; (dose: 1.0 mg/kg/injection, schedule: Q01DX009 (ip), vehicle: saline) 158 % of control; (dose: 1.0 mg/kg/injection, schedule: Q01DX009 (ip), vehicle: water) 153 % of control and 175 % of control; (dose: 1.5 mg/kg/injection, schedule: Q04DX003 (ip), vehicle: water) 118 % of control; (dose: 2.0 mg/kg/injection, schedule: Q01DX009 (ip), vehicle: saline) 153 % of control. Besides, the T/C runs as follows: (dose: 2.0 mg/kg/injection, schedule: Q01DX009 (ip), vehicle: water) 155 % of control and 186 % of control; (dose: 3.0 mg/kg/injection, schedule: Q04DX003 (ip), vehicle: water) 124 % of control; (dose: 3.24 mg/kg/injection, schedule: Q04DX003 (ip), vehicle: water) 150 % of control; (dose: 4.0 mg/kg/injection, schedule: Q01DX009 (ip), vehicle: water) 150 % of control and 157 % of control; (dose: 5.4 mg/kg/injection, schedule: Q04DX003 (ip), vehicle: water) 161 % of control; (dose: 6.0 mg/kg/injection, schedule: Q04DX003 (ip), vehicle: water) 123 % of control and 124 % of control. Further, the T/C is, setting by setting: (dose: 8.0 mg/kg/injection, schedule: Q01DX009 (ip), vehicle: saline) 91 % of control; (dose: 8.0 mg/kg/injection, schedule: Q01DX009 (ip), vehicle: water) 88 % of control and 94 % of control; (dose: 9.0 mg/kg/injection, schedule: Q04DX003 (ip), vehicle: water) 157 % of control; (dose: 12.0 mg/kg/injection, schedule: Q04DX003 (ip), vehicle: water) 102 % of control; (dose: 15.0 mg/kg/injection, schedule: Q04DX003 (ip), vehicle: water) 98 % of control; (dose: 24.0 mg/kg/injection, schedule: Q04DX003 (ip), vehicle: water) 123 % of control. Further, the T/C is 116 % of control (dose: 48.0 mg/kg/injection, schedule: Q04DX003 (ip), vehicle: water) and 98 % of control (dose: 96.0 mg/kg/injection, schedule: Q04DX003 (ip), vehicle: water).

Regarding `CCCCCCCCCCCCCC1C=CCC1` (stereo not given), the T/C by setting is: (dose: 100.0 mg/kg/injection, schedule: Q01DX001 (ip), vehicle: saline) 101 % of control; (dose: 200.0 mg/kg/injection, schedule: Q01DX001 (ip), vehicle: saline) 99 % of control; (dose: 400.0 mg/kg/injection, schedule: Q01DX001 (ip), vehicle: saline) 100 % of control.

`C=C(C)C1CCC2=CC(CC3(C)OC3C3=CC(C(=O)OC)=C(C1)O3)OC2=O` (stereo not given): the T/C by setting is: (dose: 12.5 mg/kg/injection, schedule: Q01DX009 (ip), vehicle: Klucel (hydroxypropylcellulose) (HPC)) 99 % of control; (dose: 25.0 mg/kg/injection, schedule: Q01DX009 (ip), vehicle: Klucel (hydroxypropylcellulose) (HPC)) 104 % of control; under setting [4], 100 % of control.

For the compound `CCN1CC2(COC)C(O)CC(OC)C34C5CC6(O)C(OC)C=C(C5C6OC(=O)c5ccc(OC)c(OC)c5)C(C(OC)C23)C14` (stereo not given), the T/C is 90 % of control (dose: 0.05 mg/kg/injection, schedule: Q01DX009 (ip), vehicle: Klucel (hydroxypropylcellulose) (HPC)); 102 % of control (dose: 0.05 mg/kg/injection, schedule: Q01DX009 (ip), vehicle: saline with Tween-80); 91 % of control (dose: 0.1 mg/kg/injection, schedule: Q01DX009 (ip), vehicle: Klucel (hydroxypropylcellulose) (HPC)); 96 % of control (dose: 0.1 mg/kg/injection, schedule: Q01DX009 (ip), vehicle: saline with Tween-80); 100 % of control (dose: 0.2 mg/kg/injection, schedule: Q01DX009 (ip), vehicle: Klucel (hydroxypropylcellulose) (HPC)); 91 % of control (dose: 0.2 mg/kg/injection, schedule: Q01DX009 (ip), vehicle: saline with Tween-80). Moreover, the T/C was 116 % of control (dose: 0.4 mg/kg/injection, schedule: Q01DX009 (ip), vehicle: Klucel (hydroxypropylcellulose) (HPC)) and 91 % of control (dose: 0.4 mg/kg/injection, schedule: Q01DX009 (ip), vehicle: saline with Tween-80).

For `CCCCCCCCCCCCCC[N+]1(CC)CCCCC1`, the T/C reads like this: (dose: 0.19 mg/kg/injection, schedule: Q01DX009 (ip), vehicle: saline) 113 % of control and 115 % of control; (dose: 0.39 mg/kg/injection, schedule: Q01DX009 (ip), vehicle: saline) 111 % of control and 113 % of control and 118 % of control; (dose: 0.78 mg/kg/injection, schedule: Q01DX009 (ip), vehicle: saline) 120 % of control and 94 % of control; (dose: 1.56 mg/kg/injection, schedule: Q01DX009 (ip), vehicle: saline) 109 % of control; (dose: 1.56 mg/kg/injection, schedule: Q04DX003 (ip), vehicle: saline) 113 % of control.

`CNc1ccc(O)c2c1C(=O)c1ccccc1C2=O`: the T/C was 93 % of control (dose: 25.0 mg/kg/injection, schedule: Q04DX002 (ip), vehicle: saline with Tween-80); 92 % of control (dose: 50.0 mg/kg/injection, schedule: Q04DX002 (ip), vehicle: saline with Tween-80); 101 % of control (dose: 100.0 mg/kg/injection, schedule: Q04DX002 (ip), vehicle: saline with Tween-80); 109 % of control (dose: 200.0 mg/kg/injection, schedule: Q04DX002 (ip), vehicle: saline with Tween-80).

In the case of `Cc1nn(C(=O)c2ccncc2)c(C)c1N=Nc1cccc([N+](=O)[O-])c1`, the T/C was 89 % of control (dose: 100.0 mg/kg/injection, schedule: Q04DX003 (ip), vehicle: saline) and 93 % of control (dose: 200.0 mg/kg/injection, schedule: Q04DX003 (ip), vehicle: saline).

For `COc1cc(/C=C2\NC(=S)N(c3ccccc3)C2=O)ccc1O`, the T/C is, setting by setting: under setting [1], 100 % of control and 109 % of control; under setting [2], 100 % of control and 101 % of control and 86 % of control; under setting [3], 100 % of control and 101 % of control and 86 % of control; (dose: 400.0 mg/kg/injection, schedule: Q01DX005 (ip), vehicle: saline with Tween-80) 99 % of control and 100 % of control and 104 % of control.

As for `COC(=O)/C=C1\C(=O)OC(C)(C)C1(C)C`, the T/C runs as follows: under setting [4], 111 % of control; (dose: 100.0 mg/kg/injection, schedule: Q01DX009 (ip), vehicle: Klucel (hydroxypropylcellulose) (HPC)) 100 % of control; (dose: 200.0 mg/kg/injection, schedule: Q01DX009 (ip), vehicle: Klucel (hydroxypropylcellulose) (HPC)) 103 % of control.
